# Measurements from patent publication US20110183980A1, “O-BENZYL NICOTINAMIDE ANALOGS AS MGLUR5 POSITIVE ALLOSTERIC MODULATORS” (priority 2009, published 2011).
# Target: T1, rat mGluR5 (Rattus norvegicus, UniProt P31424)
# T1 construct: expressed in transfected cells; host or cells: human embryonic kidney (HEK) cells
# Assay: Potentiation of glutamate response, Ca2+ fluorescence (FDSS) in HEK cells transfected with rat mGluR5
# Format: cell-based
# Details: Table 1; potentiation of mGluR5 response to glutamate; read-out: EC50
# Procedure: Human embryonic kidney (HEK) cells transfected with rat mGluR5 were plated in clear bottom assay plates for assay in a Functional Drug Screening System (FDSS). The cells were loaded with a Ca^2+-sensitive fluorescent dye (e.g., Fluo-4), and the plates were washed and placed in the FDSS instrument. After establishment of a fluorescence baseline for twelve seconds, the compounds of the present invention were added to the cells, and the response in cells was measured. Five minutes later, an mGluR5 agonist (e.g., glutamate, 3,5-dihydroxyphenylglycine, or quisqualate) was added to the cells, and the response of the cells was measured. Potentiation of the agonist response of mGluR5 by the compounds in the present invention was observed as an increase in response to non-maximal concentrations of agonist (here, glutamate) in the presence of compound compared to the response to agonist in the absence of compound.
# The above described assay operated in two modes. In the first mode, a range of concentrations of the present compounds were added to cells, followed by a single fixed concentration of agonist. If a compound acted as a potentiator, an EC50 value for potentiation and a maximum extent of potentiation by the compound at this concentration of agonist was determined by non-linear curve fitting. In the second mode, several fixed concentrations of the present compounds were added to various wells on a plate, followed by a range of concentrations of agonist for each concentration of present compound; the EC50 values for the agonist at each concentration of compound were determined by non-linear curve fitting. A decrease in the EC50 value of the agonist with increasing concentrations of the present compounds (a leftward shift of the agonist concentration-response curve) is an indication of the degree of mGluR5 potentiation at a given concentration of the present compound. An increase in the EC50 value of the agonist with increasing concentrations of the present compounds (a rightward shift of the agonist concentration-response curve) is an indication of the degree of mGluR5 antagonism at a given concentration of the present compound. The second mode also indicates whether the present compounds also affect the maximum response to mGluR5 to agonists.
# T1 sequence (P31424 21-1203): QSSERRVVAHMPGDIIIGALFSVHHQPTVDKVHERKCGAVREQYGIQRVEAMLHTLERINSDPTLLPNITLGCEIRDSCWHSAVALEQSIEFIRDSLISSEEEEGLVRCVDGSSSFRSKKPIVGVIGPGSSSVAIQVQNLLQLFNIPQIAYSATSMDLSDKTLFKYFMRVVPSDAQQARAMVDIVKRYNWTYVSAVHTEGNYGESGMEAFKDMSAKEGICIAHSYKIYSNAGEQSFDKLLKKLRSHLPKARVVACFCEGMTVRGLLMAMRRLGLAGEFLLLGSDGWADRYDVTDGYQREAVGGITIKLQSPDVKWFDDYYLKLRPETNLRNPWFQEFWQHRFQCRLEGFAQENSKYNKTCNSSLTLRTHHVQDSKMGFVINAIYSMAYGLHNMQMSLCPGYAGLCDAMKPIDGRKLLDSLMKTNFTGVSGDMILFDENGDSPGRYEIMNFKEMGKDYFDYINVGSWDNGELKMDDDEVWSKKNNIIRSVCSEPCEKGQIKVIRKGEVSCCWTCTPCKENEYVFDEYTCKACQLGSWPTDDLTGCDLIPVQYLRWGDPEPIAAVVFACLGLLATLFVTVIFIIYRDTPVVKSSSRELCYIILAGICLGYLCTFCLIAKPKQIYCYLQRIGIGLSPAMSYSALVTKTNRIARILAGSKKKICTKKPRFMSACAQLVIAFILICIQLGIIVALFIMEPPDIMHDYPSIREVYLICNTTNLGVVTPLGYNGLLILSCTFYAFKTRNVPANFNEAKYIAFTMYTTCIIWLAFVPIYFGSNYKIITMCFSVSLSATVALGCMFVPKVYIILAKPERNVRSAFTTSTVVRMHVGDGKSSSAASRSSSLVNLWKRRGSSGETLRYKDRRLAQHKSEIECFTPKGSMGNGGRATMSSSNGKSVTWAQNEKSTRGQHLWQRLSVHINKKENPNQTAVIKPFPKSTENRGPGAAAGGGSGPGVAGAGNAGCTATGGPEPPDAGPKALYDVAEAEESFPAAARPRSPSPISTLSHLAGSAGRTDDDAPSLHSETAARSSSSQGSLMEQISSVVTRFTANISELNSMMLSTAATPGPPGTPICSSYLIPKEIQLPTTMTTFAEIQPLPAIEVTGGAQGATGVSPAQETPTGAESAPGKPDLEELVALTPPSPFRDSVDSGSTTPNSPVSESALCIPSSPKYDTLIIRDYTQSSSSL
row,SMILES,EC50
1,O=C(Nc1ccccn1)c1ccc(OCc2ccccc2)nc1 [Example 1.2a.4],410 nM
2,O=C(Nc1ccc(F)cc1F)c1ccc(OCc2ccccc2)nc1 [Example 1.2a.5],140 nM
3,CC(C)(C)NC(=O)c1ccc(OCc2ccccc2)nc1 [Example 1.2a.6],230 nM
4,O=C(NCC1CC1)c1ccc(OCc2ccccc2)nc1 [Example 1.2a.7],450 nM
5,CC(C)(C)CCNC(=O)c1ccc(OCc2ccccc2)nc1 [Example 1.2a.8],92 nM
6,O=C(NC1CCC1)c1ccc(OCc2ccccc2)nc1 [Example 1.2a.9],340 nM
7,O=C(c1ccc(OCc2ccccc2)nc1)N1CCC1 [Example 1.2a.10],3700 nM
8,O=C(Nc1ccc(F)cn1)c1ccc(OCc2ccccc2)nc1 [Example 1.2a.11],280 nM
9,O=C(NCc1ccccn1)c1ccc(OCc2ccccc2)nc1 [Example 1.2a.12],3400 nM
10,O=C(Nc1ccncn1)c1ccc(OCc2ccccc2)nc1 [Example 1.2a.13],1100 nM
11,O=C(Nc1ccccc1)c1ccc(OCc2ccccc2)nc1 [Example 1.2a.14],380 nM
12,O=C(Nc1ccccc1F)c1ccc(OCc2ccccc2)nc1 [Example 1.2a.15],310 nM
13,O=C(Nc1cccc(F)c1)c1ccc(OCc2ccccc2)nc1 [Example 1.2a.16],530 nM
14,O=C(Nc1ccc(F)cc1)c1ccc(OCc2ccccc2)nc1 [Example 1.2a.17],340 nM
15,O=C(Nc1nccs1)c1ccc(OCc2ccccc2)nc1 [Example 1.2a.18],520 nM
16,C[C@@H](NC(=O)c1ccc(OCc2ccccc2)nc1)C1CCCCC1 [Example 1.2a.19],40 nM

# Same assay, conditions: Table 2; potentiation of mGluR5 response to glutamate; read-out: EC50
row,SMILES,EC50
1,C[C@@H](NC(=O)c1ccc(OCc2cccc(F)c2)nc1)C(C)(C)C,2.2 nM
2,C[C@@H](NC(=O)c1ccc(OCc2cccc(F)c2)nc1)C1CCC1,6.6 nM
3,CC(C)[C@@H](C)NC(=O)c1ccc(OCc2cccc(F)c2)nc1,21 nM
4,CC1CCCCC1NC(=O)c1ccc(OCc2ccccc2)nc1 (centres unmarked),36 nM
5,O=C(NC1C2CC3CC(C2)CC1C3)c1ccc(OCc2ccccc2)nc1 (centres unmarked),39 nM
6,O=C(N[C@@H](C1CC1)C(F)(F)F)c1ccc(OCc2cccc(F)c2)nc1,100 nM
7,COc1cccc(COc2ccc(C(=O)N[C@H](C)C(C)(C)C)cn2)c1,120 nM
8,O=C(NCC1CCC1)c1ccc(OCc2ccccc2)nc1,130 nM
9,Cc1cc(OCc2cccc(F)c2)ncc1C(=O)N[C@H](C)C1CCCCC1,130 nM
10,C[C@@H](NC(=O)c1ccc(OCc2cccc(F)c2)nc1)C(C)(C)O,150 nM
11,O=C(NC12CC3CC(CC(C3)C1)C2)c1ccc(OCc2ccccc2)nc1,180 nM
12,O=C(NC1CCCC1)c1ccc(OCc2ccccc2)nc1,180 nM
13,O=C(NC(C1CC1)C1CC1)c1ccc(OCc2cccc(F)c2)nc1,300 nM
14,C[C@@H](NC(=O)c1ccc(OCc2cccc(F)c2)nc1)C1CCOCC1,310 nM
15,C[C@@H](NC(=O)c1ccc(OCc2cccc(F)c2)nc1Cl)C(C)(C)C,370 nM
16,Cc1cc(C(=O)N[C@H](C)C2CCCCC2)cnc1OCc1cccc(F)c1,490 nM
17,Cc1cc(OCc2ccncc2)ncc1C(=O)Nc1ccc(F)cc1F,490 nM
18,O=C(Nc1ccccc1O)c1ccc(OCc2ccccc2)nc1,520 nM
19,C[C@@H](NC(=O)c1ccc(OCc2ccncc2)nc1)C(C)(C)C,570 nM
20,Cc1cc(OCc2ccncc2)ncc1C(=O)N[C@H](C)C1CCCCC1,610 nM
21,C[C@H](NC(=O)c1ccc(OCc2cccc(F)c2)nc1)C(C)(C)O,610 nM
22,CC(NC(=O)c1ccc(OCc2cccc(F)c2)nc1)C(C)(C)O (centres unmarked),660 nM
23,Cc1cc(C(=O)Nc2ccc(F)cc2F)cnc1OCc1ccncc1,680 nM
24,Cc1cc(OCc2cccc(F)c2)ncc1C(=O)N[C@H](C)C(C)(C)C,690 nM
25,Cc1cc(OCc2cccc(F)c2)ncc1C(=O)Nc1ccc(F)cc1F,920 nM

row,SMILES,EC50
1,Cc1cc(OCc2cccc(F)c2)ncc1C(=O)NCCC(C)(C)C,960 nM
2,CC(NC(=O)c1ccc(OCc2cccc(F)c2)nc1)C(C)(C)CO (centres unmarked),1000 nM
3,CC(C)(C)CC(C)(C)NC(=O)c1ccc(OCc2cccc(F)c2)nc1,1100 nM
4,C[C@@H](NC(=O)c1cnc(OCc2cccc(F)c2)cc1C(F)(F)F)C(C)(C)C,1200 nM
5,Cc1cc(C(=O)NCCC(C)(C)C)cnc1OCc1cccc(F)c1,1300 nM
6,CC[C@@H](C)NC(=O)c1ccc(OCc2cccc(F)c2)nc1,1300 nM
7,C[C@@H](NC(=O)c1ccc(OCc2cccc(F)c2)nc1)C1CCOC(C)(C)C1 (some centres unmarked),1700 nM
8,Cc1cc(OCc2ccncc2)ncc1C(=O)NCCC(C)(C)C,1700 nM
9,O=C(NC1CC(O)(C(F)(F)F)C1)c1ccc(OCc2cccc(F)c2)nc1 (centres unmarked),1800 nM
10,C[C@@H](NC(=O)c1cnc(OCc2ccncc2)c(C#N)c1)C1CCCCC1,1900 nM
11,COc1cc(C(=O)NCCC(C)(C)C)cnc1OCc1cccc(F)c1,1900 nM
12,COC[C@@H](NC(=O)c1ccc(OCc2cccc(F)c2)nc1)C(C)(C)C,1900 nM
13,O=C(N[C@H]1CCCC[C@@H]1O)c1ccc(OCc2ccccc2)nc1,2800 nM
14,COCC(C)NC(=O)c1ccc(OCc2cccc(F)c2)nc1 (centres unmarked),3000 nM
15,CC(C)(C)[C@@H](CO)NC(=O)c1ccc(OCc2cccc(F)c2)nc1,3200 nM
16,COc1ccccc1NC(=O)c1ccc(OCc2ccccc2)nc1,3400 nM
17,COc1ccc(F)cc1COc1ccc(C(=O)N[C@H](C)C(C)(C)C)cn1,3500 nM
18,C[C@@H](NC(=O)c1cnc(OCc2ccncc2)c(Br)c1)C1CCCCC1,3600 nM
19,Cc1cc(C(=O)N[C@H](C)C2CCCCC2)cnc1OCc1ccncc1,3600 nM
20,CC(NC(=O)c1ccc(OCc2cccc(F)c2)nc1)C1CCCOC1 (centres unmarked),3700 nM
21,CC(C)(C)CCNC(=O)c1cnc(OCc2cccc(F)c2)c(C#N)c1,3900 nM
22,CC(C)(C)CCNC(=O)c1cnc(OCc2ccncc2)c(Br)c1,3900 nM
23,C[C@@H](NC(=O)c1cnc(OCc2ccncc2)cc1C(F)(F)F)C(C)(C)C,3900 nM
24,CC(COC(C)(C)C)NC(=O)c1ccc(OCc2cccc(F)c2)nc1 (centres unmarked),4200 nM
25,COc1ccc(COc2ccc(C(=O)N[C@H](C)C(C)(C)C)cn2)cc1F,4600 nM

row,SMILES,EC50
1,COc1cc(F)cc(COc2ccc(C(=O)N[C@H](C)C(C)(C)C)cn2)c1,5100 nM
2,COc1c(F)cccc1COc1ccc(C(=O)N[C@H](C)C(C)(C)C)cn1,5200 nM
3,Cc1cc(C(=O)NCCC(C)(C)C)cnc1OCc1ccncc1,5300 nM
4,COc1ccc(COc2ccc(C(=O)N[C@H](C)C(C)(C)C)cn2)cc1,5400 nM
5,CC(C)(C)CCNC(=O)c1ccc(OCc2cc(F)cc(Br)c2)nc1,> 10000 nM
6,Cc1cc(C(=O)Nc2ccc(F)cc2F)cnc1OCc1cccc(F)c1,> 10000 nM
7,C[C@@H](NC(=O)c1cnc(OCc2ccncc2)c(C(F)(F)F)c1)C1CCCCC1,> 10000 nM
8,CC(C)(C)CCNC(=O)c1cnc(OCc2ccncc2)c(C#N)c1,> 10000 nM
9,C[C@@H](NC(=O)c1cnc(OCc2cccc(F)c2)c(C(F)(F)F)c1)C1CCCCC1,> 10000 nM
10,COc1nc(OCc2cccc(F)c2)ccc1C(=O)NCCC(C)(C)C,> 10000 nM
11,COc1nc(OCc2cccc(F)c2)ccc1C(=O)N[C@H](C)C1CCCCC1,> 10000 nM
12,C[C@H](CN1CCC(F)(F)C1)NC(=O)c1ccc(OCc2cccc(F)c2)nc1,> 10000 nM
13,C[C@H](CN1CCC(C(F)(F)F)CC1)NC(=O)c1ccc(OCc2cccc(F)c2)nc1,> 10000 nM
14,COc1ccccc1COc1ccc(C(=O)N[C@H](C)C(C)(C)C)cn1,> 10000 nM
15,CC(NC(=O)c1ccc(OCc2cccc(F)c2)nc1)C1CCCCO1 (centres unmarked),> 10000 nM
16,O=C(NC(c1ccccn1)C(F)(F)F)c1ccc(OCc2cccc(F)c2)nc1 (centres unmarked),> 10000 nM
17,CC1(CCNC(=O)c2ccc(OCc3cccc(F)c3)nc2)COC1,> 10000 nM
18,CC(C)(C)OCCNC(=O)c1ccc(OCc2cccc(F)c2)nc1,> 10000 nM
19,CC(Oc1ccc(C(=O)N[C@H](C)C(C)(C)C)cn1)c1cccc(F)c1 (some centres unmarked),> 10000 nM
20,CC1(O)CC(NC(=O)c2ccc(OCc3cccc(F)c3)nc2)C1 (centres unmarked),> 10000 nM
21,C[C@]1(O)CCC[C@@H]1NC(=O)c1ccc(OCc2cccc(F)c2)nc1,> 10000 nM
22,C[C@@H](NC(=O)c1ccc(OCc2cccc(F)c2)[nH]c1=O)C(C)(C)C,> 10000 nM
23,C[C@H](NC(=O)c1ccc(OCc2cccc(F)c2)nc1Cl)C(C)(C)C,> 10000 nM

# Same assay, conditions: mGluR5 expressing cell line
row,SMILES,Glu max
1,"C[C@@H](NC(=O)c1ccc(OCc2ccccc2)nc1)C1CCCCC1 [Example 1.2a.2, (R)-6-(Benzyloxy)-N-(1-cyclohexylethyl)nicotinamide]",91%

# Same assay, conditions: mGluR5 expressing cell line, potentiation; read-out: EC50
row,SMILES,EC50
1,"C[C@@H](NC(=O)c1ccc(OCc2ccccc2)nc1)C1CCCCC1 [Example 1.2a.2, (R)-6-(Benzyloxy)-N-(1-cyclohexylethyl)nicotinamide]",40 nM

# Same assay, conditions: read-out: EC50 as an mGluR5 potentiator
row,SMILES,EC50
1,C[C@H](NC(=O)c1ccc(OCc2ccccc2)nc1)C1CCCCC1 [(S)-6-(benzyloxy)-N-(1-cyclohexylethyl)nicotinamide],> 10000 nM
